For 16 compounds, GI50 and TGI results are on record in PubChem BioAssay (NCI).

“And” between values parts separate entries of the source, which are not always exact repeats. Identical values can stand only once.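 Test compounds were applied to cells in 96-well plates for 48 hours at 5 doses. Abbreviation: GI50, concentration required for 50% inhibition of growth. TGI: total growth inhibition.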

Common to all, as to assay: growth of human tumour cells (NCI), 48 h
Assay [1] concerns RPMI-8226 leukemia.
Assay [2] concerns EKVX NSCLC.
Assay [3] has as its system NCI-H226 lung.
Assay [4] has as its system HS 578T breast.
The test system of assay [5] is UO-31 renal.
For assay [6], the system named is RXF 393 renal.
Assay [7] relates to CCRF-CEM leukemia.
For assay [8], the system named is HCT-15 colon.
The subject of assay [9] is CAKI-1 renal.
The subject of assay [10] is IGROV1 ovarian.

Regarding `COc1cc(NC(N)=NCCC(C)(C)c2ccc(C(F)(F)F)cc2)ncc1C#N`, the GI50 in assay [1] is 1.27 µM; in assay [2], 1.4 µM; in assay [3] it was 1.6 µM; in assay [4], 2.14 µM; in assay [5] it was 1.34 µM; in [6] it was 1.79 µM. For the same compound, the GI50 was 2.06 µM in assay [7], 1.53 µM in assay [8], 1.42 µM in assay [9] and 1.68 µM in assay [10]. The TGI came to 3.3 µM in [1]; 2.87 µM in assay [2]; 3.36 µM in assay [3]; 4.55 µM in assay [4]; 2.66 µM in assay [5]; 3.24 µM in assay [6]. Also, the TGI in assay [7] turned out to be 4.93 µM; in assay [8], 2.9 µM; in assay [9] it was 2.74 µM; in assay [10] it was 3.39 µM.
For the compound `COc1ccc(CNc2nc(NCc3ccc(OC)cc3)c3n[nH]c(C(C)C)c3n2)cc1`, the GI50 was 3.27 µM in assay [1]; 8.09 µM in assay [2]; 14.1 µM in [3]; 2.97 µM in assay [4]; 4.81 µM in assay [5]; 18.6 µM in assay [6]. Further, the GI50 in [7] was 3.73 µM; in [8] it was 5.09 µM; in [9] it was 6.44 µM; in assay [10] it was 4.38 µM. Also, the TGI was 12.5 µM in assay [1]; 23.8 µM in [2]; 59.8 µM in assay [3]; 26 µM in [4]; 15 µM in [5]; over 100 µM in [6]. For the same compound, the TGI in assay [7] was 15.4 µM; in assay [8] it was 28.8 µM; in assay [9] it was over 100 µM; in [10], 13.7 µM.
Consider `CC[C@@]1(O)C(=O)OCc2c1cc1n(c2=O)Cc2c-1nc1ccccc1c2/C=N/OC(C)(C)C`, for which the GI50 in [1] was 0.0116 µM; in [2], 0.073 µM; in assay [3] it was under 0.01 µM; in assay [4] it was 1.13 µM; in assay [5], under 0.01 µM; in assay [6] it was under 0.01 µM. For the same compound, the GI50 in assay [7] was under 0.01 µM; in assay [8] it was 0.082 µM; in assay [9], under 0.01 µM; in assay [10], 0.0391 µM. In addition, the TGI is 0.551 µM in [1]; 23.8 µM in assay [2]; 0.0355 µM in assay [3]; over 85.5 µM in assay [4]; 0.122 µM in [5]; 0.0639 µM in assay [6]. The TGI in assay [7] was over 100 µM; in assay [8], 25.7 µM; in [9], 0.149 µM; in [10] it was 5.26 µM.
With `CCN(CC)CC(O)C1CCC(c2ccccc2)CC1` (stereo not given), the TGI is 39 µM in [1]; over 100 µM in assay [2]; 33.3 µM in [3]; over 100 µM in [4]; 32.3 µM in assay [5]; 45.1 µM in assay [6]. For the same compound, the TGI in assay [7] was 82.6 µM; in assay [8], 42.3 µM; in assay [9], 42.2 µM; in assay [10] it was over 100 µM.
Turning to `Oc1cc2ccccc2cc1-c1n[nH]c(=S)n1-c1ccc(Cl)cc1`, the GI50 in assay [1] is 12.1 µM; in assay [2] it was 28.7 µM; in assay [3], 23.7 µM; in assay [4] it was 12.4 µM; in assay [5] it was 23.2 µM; in [6], 21.5 µM. The GI50 in [7] is 21.9 µM; in [8], 7.96 µM; in [9], 12.5 µM; in assay [10], 1.31 µM. In addition, the TGI is 43.5 µM in assay [1]; over 100 µM in [2]; 85 µM in assay [3]; 90.2 µM in assay [4]; 71.8 µM in assay [5]; 67.1 µM in assay [6]. Further, the TGI in assay [7] was over 100 µM; in assay [8], over 100 µM; in assay [9], 39.4 µM; in assay [10] it was 7.67 µM.
Consider `Cc1ccc(S(=O)(=O)n2cc(-c3nnnn3-c3ccc(Cl)cc3)c(=O)c3ccccc32)cc1`, for which the GI50 in assay [1] is 21.9 µM; in assay [2], over 100 µM; in assay [3], over 100 µM; in assay [4], over 100 µM; in assay [5] it was 52.5 µM; in assay [6] it was 29.6 µM. The GI50 in [7] was 43.4 µM; in assay [8], over 100 µM; in assay [9], over 100 µM; in [10] it was over 100 µM. Also, the TGI in assay [1] was 59 µM; in assay [2], over 100 µM; in assay [3], over 100 µM; in [4], over 100 µM; in assay [5], over 100 µM; in assay [6], over 100 µM. The TGI in assay [7], in [8], in [9] and in [10] was over 100 µM in each case.
For the compound `COc1cc2c3c(c4c5ccccc5[nH]c4c2c(OC)c1OC)C(=O)N(CCN1CCCCC1)C3=O`, the GI50 in assay [1] is 1.06 µM; in [2] it was 1.5 µM; in assay [3] it was 1.08 µM; in assay [4], 1.84 µM; in assay [5], 1.03 µM; in assay [6], 0.502 µM. Besides, the GI50 in [7] was 0.855 µM; in assay [8], 0.498 µM; in [9] it was 0.811 µM; in assay [10], 0.661 µM. The TGI in assay [1] worked out at 4.17 µM; in assay [2], 3.42 µM; in assay [3], 4.57 µM; in assay [4], 4.59 µM; in assay [5], 2.32 µM; in assay [6], 1.89 µM. The TGI in [7] is over 100 µM; in assay [8] it was 2.07 µM; in assay [9], 2.3 µM; in assay [10], 2.22 µM.
For the compound `Cc1ccccc1/C=C1\CN(C(=O)OC(C)(C)C)C/C(=C\c2ccccc2C)C1=O`, the GI50 in assay [1] was 1.66 µM; in assay [2], 2.34 µM; in assay [3], 2.01 µM; in assay [4] it was 3.99 µM; in assay [5], 1.63 µM; in assay [6], 1.66 µM. Besides, the GI50 is 2.9 µM in assay [7], 2.1 µM in assay [8], 2.06 µM in [9] and 2.26 µM in assay [10]. Moreover, the TGI is 5.37 µM in [1]; 6.88 µM in assay [2]; 4.14 µM in [3]; 83.1 µM in assay [4]; 3.09 µM in [5]; 3.21 µM in assay [6]. Further, the TGI in [7] amounted to 12.6 µM; in assay [8], 5.76 µM; in assay [9] it was 4.25 µM; in assay [10] it was 6.26 µM.
As to `CCCCCCCCCC(CCCC(O)CC(=O)O)OC1OC(COC2OC(C)C(O)C(O)C2O)C(O)C(O)C1OC1OC(CO)C(O)C(O)C1OC1OC(C)C(O)C(O)C1O` (stereo not given), the GI50 in assay [1], in [2], in assay [3], in assay [4], in [5] and in [6] was over 40 µM each time. The GI50 in assay [7], in [8], in [9] and in assay [10] was over 40 µM in each case. Also, the TGI in assay [1], in [2], in [3], in assay [4], in assay [5] and in assay [6] was over 40 µM throughout. The TGI in assay [7], in [8], in assay [9] and in assay [10] was over 40 µM each time.
As for `Nc1nc2c(c3cnccc13)C(c1cccc(Cl)c1)Cc1cnccc1-2` (stereo not given), the GI50 in [1] was 0.48 µM; in [2], 0.441 µM; in assay [3], 0.673 µM; in [4], 0.466 µM; in [5], 0.841 µM; in [6], 0.268 µM. The GI50 was 0.429 µM in assay [7], 0.388 µM in assay [8], 0.434 µM in assay [9] and 0.644 µM in assay [10]. In addition, the TGI in [1] was found to be 20.2 µM; in assay [2], 15.1 µM; in assay [3], 14.7 µM; in [4], 32.9 µM; in [5] it was 14.8 µM; in assay [6] it was 0.765 µM. In addition, the TGI in assay [7] amounted to 19.5 µM; in assay [8], 7.93 µM; in assay [9], 15.5 µM; in assay [10], 15.3 µM.
For the compound `C=C1C(=O)OC2/C=C(\C)C3OC3/C=C(/C(=O)OC)C(OC(C)=O)C(OC(=O)C(C)(O)C(C)OC(C)=O)C12` (stereo not given), the TGI in assay [1] worked out at 7.9 µM; in assay [2], 42.9 µM; in [3], 15.7 µM; in assay [4], 29.7 µM; in assay [5], 15 µM; in assay [6], 1.35 µM. Also, the TGI was 3.04 µM in assay [7], over 34.1 µM in assay [8], 16.3 µM in assay [9] and 5.71 µM in assay [10].
Turning to `Cn1c(=S)sc2nc3ccccc3n2c1=S`, the TGI in [1] is 88.1 µM; in assay [2] it was 44.6 µM; in assay [3], 58.7 µM; in assay [4], 95.9 µM; in assay [5], 18.8 µM; in assay [6], 27.4 µM. Moreover, the TGI in [7] is 43.7 µM; in assay [8], 29.4 µM; in assay [9], 39.2 µM; in assay [10], 30.9 µM.
In the case of `N=c1ccn2c(n1)O[C@@H]1[C@@H](O)[C@H](CO)O[C@@H]12`, the GI50 was over 100 µM in assay [1]; over 100 µM in assay [2]; 3.52 µM in assay [3]; over 100 µM in assay [4]; 1.31 µM in assay [5]; 18.1 µM in assay [6]. The GI50 in assay [7] was 0.0773 µM; in [8], 11.4 µM; in [10], 11 µM. The TGI in [1] is over 100 µM; in assay [2], over 100 µM; in assay [3], over 100 µM; in [4], over 100 µM; in [5], 20.8 µM; in assay [6], over 100 µM. In addition, the TGI in assay [7], in assay [8], in assay [9] and in assay [10] was over 100 µM each time.
With `O=C(/C=C/c1cccnc1)c1ccccc1O`, the GI50 was 12.9 µM in assay [1]; 34.7 µM in assay [2]; 20 µM in assay [3]; 35.9 µM in [4]; 13.4 µM in assay [5]; 13.8 µM in assay [6]. Further, the GI50 in [7] was 22.7 µM; in assay [8], 15.6 µM; in [9], 17.3 µM; in assay [10], 20.1 µM. Further, the TGI in assay [1] was 39 µM; in assay [2], over 100 µM; in [3], 51.7 µM; in [4], over 100 µM; in [5], 28.9 µM; in [6], 27.3 µM. The TGI in assay [7] is over 100 µM; in assay [8] it was 41 µM; in [9], 42.4 µM; in [10], 50 µM.
`COc1cc(C2C(C#N)=C(N)Oc3cc(O)ccc32)cc(OC)c1OC` (stereo not given): the GI50 in assay [1] was 0.65 µM; in assay [2] it was 6.49 µM; in [3] it was 6.98 µM; in [4] it was 0.4 µM; in assay [5], 3.84 µM; in assay [6] it was 0.362 µM. In addition, the GI50 is 0.37 µM in assay [7], 0.539 µM in assay [8], 0.97 µM in assay [9] and 2.19 µM in assay [10]. In addition, the TGI was over 89.6 µM in assay [1]; over 100 µM in assay [2]; over 100 µM in assay [3]; over 100 µM in [4]; over 100 µM in assay [5]; 1.99 µM in assay [6]. The TGI in assay [7], in assay [8], in [9] and in [10] was over 100 µM in each case.
As to `NC[C@@](O)(c1ccc(Cl)cc1)c1ccc(-c2cn[nH]c2)cc1`, the GI50 in assay [1] was 2.23 µM; in [2], 0.556 µM; in assay [3], 1.42 µM and 2.19 µM; in [4] it was 0.471 µM and 0.173 µM; in [5], 0.583 µM and 0.747 µM; in [6], 0.298 µM and 0.328 µM. Also, the GI50 in assay [7] was 2.41 µM and 0.824 µM; in assay [8], 0.867 µM; in assay [9] it was 0.73 µM and 1.27 µM; in assay [10], 0.43 µM and 0.272 µM. The TGI in [1] was 4.95 µM; in assay [2] it was over 10 µM; in assay [3], over 100 µM; in [6], 2.51 µM and 2.05 µM; in [8] it was 2.7 µM; in [10], 1.46 µM.
